Reference: patent US20140023650A1, “Methods of Treating and/or Preventing Cell Proliferation Disorders with IL-17 Antagonists” (INSTITUT MEDICAL DE LA SANTE ET DE LA RECHERCHE MEDICALE, priority 2010, published 2014)

How the values were obtained:
SLE patients = settings: cited from earlier work
[1] = test system: patients with Rheumatoid Arthritis; settings: cited from earlier work
MCF10A [2] = assay: Transwell migration and Matrigel invasion assays, MCF10A; type: cell-based, human; settings: for increase in cell invasion / increase in cell migration: TNFα 100 ng/mL or TGFβ 8 ng/mL, 9 days
Protocol: (§1) FIG. 16: IL-17 induces Epithelial to Mesenchymal Transition (EMT) via Twist-1 upregulation in mammary epithelial cells which increases cell migration, invasion and stemness. Human immortalized mammary epithelial cells (MCF10A) cells were untreated (NT) or treated with TNFα (100 ng/mL), TGF (8 ng/mL) or IL-17 (10 ng/mL) for 9 days. (A) MCF10A cells were first transduced using shRNA lentiviral constructs targeting the LUCIFERASE gene (shCt), AICDA gene (shAICDA) or TWIST1 gene (shTWIST1) mRNA and then treated with cytokines as indicated above. IL-17 (but no TNFα or TGFβ) induces EMT in ShCt and ShAICDA MCF10A characterized by loss of epithelial marker E-Cadherin (which, in color, fluoresces in green) and gain of mesenchymal marker Vimentin (which, in color, fluoresces in red) as assessed by immunofluorescence. […] (B) IL-17 (but no TNFα or TGFβ) induces EMT characterized by loss of epithelial markers E-Cadherin, α-Catenin and Occludin and gain of mesenchymal markers N-Cadherin and Vimentin as assessed by immunobloting. Actin was used as a loading control. (C) IL-17 enhances migratory (black bars) and invasive (white bars) abilities of MCF10A cells as assessed in Boyden chamber assays. (D-1 to D-3) IL-17 increases the number of CD24^low CD44^high stem cells in MCF10A cells. Flow cytometry assay showing CD24 and CD44 expression in untreated (NT) and IL-17-treated MCF10A cells (IL-17). Decreased CD24 and increased CD44 expression is indicative of normal stem cells. Red box indicates the stem cell population.
For transwell migration assay, 5·10^4 cells were plated in the top chamber with the non-coated membrane (24-well insert; pore size, […]; BD Biosciences). For invasion assay, 5·10^4 cells were plated in the top chamber with Matrigel-coated membrane (24-well insert; pore size, […]; BD Biosciences). In both assays, cells were plated in 1% serum medium, and 10% serum medium was used as a chemo-attractant in the lower chamber. The cells were incubated for 24 h. Cells that reached the lower chamber were stained with Giemsa and counted. Total number of migrating/invading cell was calculated by analyzing 5 fields per well in two independent experiments, that is 10 fields per condition.

MCF7 breast cancer cells = assay: Boyden chamber migration and invasion assays, MCF7; type: cell-based, human; settings: MCF7, IL-17 10 ng/mL, stimulated (FIG. 17B)
Excerpt: FIG. 17: IL-17 induces Epithelial to Mesenchymal Transition (EMT) in well differentiated and non-metastatic MCF7 breast cancer cells which increases MCF7 cancer cell migration, invasion and sternness. […] (A) IL-17 (but not TGFβ) induces EMT characterized by loss of epithelial marker E-Cadherin (which, in color, fluoresces in green) and gain of mesenchymal marker Vimentin (which, in color, fluoresces in red) as assessed by immunofluorescence. (B) IL-17 enhances migratory (black bars) and invasive (white bars) abilities of MCF7 cancer cells as assessed in Boyden chamber assays. (C-1 to C-3) IL-17 increases the number of CD24^low CD44^high stem cells in MCF7 cancer cells. Flow cytometry assay showing CD24 and CD44 expression in untreated (NT) and IL-17-treated MCF7 cells (IL-17). Decreased CD24 and increased CD44 expression is indicative of cancer stem cells. Red box indicates the cancer stem cell population.
For transwell migration assay, 5·10^4 cells were plated in the top chamber with the non-coated membrane (24-well insert; pore size, […]; BD Biosciences). […] Cells that reached the lower chamber were stained with Giemsa and counted. Total number of migrating/invading cell was calculated by analyzing 5 fields per well in two independent experiments, that is 10 fields per condition.

MCF10A [3] = assay: CD24/CD44 flow cytometry (stem cells), MCF10A; type: cell-based, human; settings: MCF10A upon IL-17 exposure; ~16% untreated (FIG. 16D)
Protocol: as §1, with “Actin was used as a loading control.” left out, “(D-1 to D-3) IL-17 increases the number of CD24^low CD44^high stem cells in MCF10A cells. Flow cytometry assay showing CD24 and CD44 expression in untreated (NT) and IL-17-treated MCF10A cells (IL-17). Decreased CD24 and increased CD44 expression is indicative of normal stem cells. Red box indicates the stem cell population.” left out
Expression of human IL-17R (FAB177P, R&D system), CD24 (BD Pharmingen) and CD44 (BD Pharmingen) was determined by flow cytometry on a FACSCalibur flow cytometer (BD Biosciences) and analyzed using FlowJo software (Tree star). […]

MCF7 = assay: CD24/CD44 flow cytometry (cancer stem cells), MCF7; type: cell-based, human; settings: MCF7 upon IL-17 exposure; ~0% untreated (FIG. 17C)
Protocol: FIG. 17: IL-17 induces Epithelial to Mesenchymal Transition (EMT) in well differentiated and non-metastatic MCF7 breast cancer cells which increases MCF7 cancer cell migration, invasion and sternness. MCF7 cells were untreated (NT) or treated TGFβ (8 ng/mL) or IL-17 (10 ng/mL) for 9 days. (A) IL-17 (but not TGFβ) induces EMT characterized by loss of epithelial marker E-Cadherin (which, in color, fluoresces in green) and gain of mesenchymal marker Vimentin (which, in color, fluoresces in red) as assessed by immunofluorescence. (B) IL-17 enhances migratory (black bars) and invasive (white bars) abilities of MCF7 cancer cells as assessed in Boyden chamber assays. (C-1 to C-3) IL-17 increases the number of CD24^low CD44^high stem cells in MCF7 cancer cells. Flow cytometry assay showing CD24 and CD44 expression in untreated (NT) and IL-17-treated MCF7 cells (IL-17). Decreased CD24 and increased CD44 expression is indicative of cancer stem cells. Red box indicates the cancer stem cell population.
Expression of human IL-17R (FAB177P, R&D system), CD24 (BD Pharmingen) and CD44 (BD Pharmingen) was determined by flow cytometry on a FACSCalibur flow cytometer (BD Biosciences) and analyzed using FlowJo software (Tree star). The antibodies were used at 1/25, 1/100 and 1/100 respectively.

B cell clones = assay: Cell viability of B cell clones (propidium iodide uptake, flow cytometry); type: cell-based, human; settings: doxorubicin 300 nM, 96 h, no antibodies
Protocol: FIG. 4: Autocrine production of IL-17 and BAFF protects B cell clones from doxorubicin-mediated cell death. (A) B cell clones secrete IL-17 and BAFF. B104 human B lymphoma cells and B cell clones DN1#1, DN1#2, DN1#3, DN1#4, DN2#5 and DN2#6 (see FIG. 3, above) were seeded at 10^5 cell/mL in medium alone and maintained in culture for 5 days. At day 5, IL-17 and BAFF concentration in cell culture supernatants was determined by ELISA. (B-1 to B-6) IL-17 and BAFF neutralizing antibodies induce B cell clone apoptosis and increase doxorubicin-induced apoptosis. […] Viability was assessed by propridium iodide uptake and flow cytometry analysis. […] B104 human B lymphoma cell line, either non-treated (NT) or pre-treated for 24 h in the presence of CpG2006 (CpG, 2.5 μg/mL) or IL-17 (1 ng/mL) and BAFF (100 ng/mL) as indicated, as well as clones DN1#1, DN1#2, DN1#3, DN1#4, DN2#5 and DN2#6 were treated or not with doxorubicin (300 nM) for 6 h and then p53, p21 and actin protein expression was assessed by immunoblotting. […]
FIG. 8: Neutralizing antibodies to IL-17, BAFF, IL-6, and IL-10 induce apoptosis and sensitize B cell clones to chemotherapy (doxorubicin). […] Viability was assessed by propridium iodide uptake and flow cytometry analysis.
Cell viability was assessed by propidium iodide (Sigma) uptake. Data were acquired on a FACSCalibur (BD Biosciences) and were analyzed with Flowio software (TreeStar).

Belimumab: humanized anti-BAFF antibody
biological activity in SLE patients (SLE patients): biologically active
tolerability in SLE patients (SLE patients): well tolerated

LY2439821: humanized monoclonal antibody against IL-17A (Eli Lilly)
efficacy compared to placebo ([1]; intravenous, certain doses, RA patients): statistically significantly more effective

TNFα
increase in cell invasion (MCF10A [2]): no
increase in cell migration (MCF10A [2]): no

IL-17: recombinant IL-17 (PeproTech, ref 200-17)
increase in invasive ability (MCF7 breast cancer cells): ~10 fold
increase in migratory ability (MCF7 breast cancer cells): ~8 fold
increase in ability to migrate in transwell migration assay (MCF10A [2]; IL-17 10 ng/mL, 9 days (FIG. 16C, black bars)): ~16 fold
increase in invasive ability in Matrigel invasion assay (MCF10A [2]; IL-17 10 ng/mL, 9 days (FIG. 16C, white bars)): ~10 fold
percentage of CD24low/CD44high stem cells (MCF10A [3]): 71%
percentage of CD24lowCD44high cancer stem cells (MCF7): 67%

TGFβ: recombinant TGFβ (PeproTech, 100-21)
increase in cell invasion (MCF10A [2]): weak
increase in cell migration (MCF10A [2]): weak

AIN 457: human anti-IL-17 monoclonal antibody (Novartis)
patients in whom treatment was effective ([1]; Rheumatoid Arthritis, 27% of patients who received placebo): 46%
safety / tolerability in RA patients ([1]; patients with RA): safe

COc1cccc2c1C(=O)c1c(O)c3c(c(O)c1C2=O)C[C@@](O)(C(=O)CO)C[C@@H]3O[C@H]1C[C@H](N)[C@H](O)[C@H](C)O1 [doxorubicin]
doxorubicin-induced apoptosis of B cell clones (B cell clones): remarkably resistant
